Assay results: patent US5612352A, “Heterocyclic compounds” (Zeneca Limited, priority 1992, dated 1997)

Tests used:
Squalene Synthase = biological target: T1, Squalene Synthase (Rattus norvegicus, UniProt Q02769); assay: Inhibition of Squalene Synthase (formation of squalene from tritiated farnesyl pyrophosphate, rat liver microsomal protein); type: biochemical; conditions: rat liver microsomes, 20 μM 1-[3H]-farnesyl pyrophosphate, 37° C., 15 minutes; read-out: IC50 (concentration which results in a 50% inhibition of squalene production)
T1 construct: from tissue; host or cells: rat liver microsomes
T1 sequence (Q02769 1-416): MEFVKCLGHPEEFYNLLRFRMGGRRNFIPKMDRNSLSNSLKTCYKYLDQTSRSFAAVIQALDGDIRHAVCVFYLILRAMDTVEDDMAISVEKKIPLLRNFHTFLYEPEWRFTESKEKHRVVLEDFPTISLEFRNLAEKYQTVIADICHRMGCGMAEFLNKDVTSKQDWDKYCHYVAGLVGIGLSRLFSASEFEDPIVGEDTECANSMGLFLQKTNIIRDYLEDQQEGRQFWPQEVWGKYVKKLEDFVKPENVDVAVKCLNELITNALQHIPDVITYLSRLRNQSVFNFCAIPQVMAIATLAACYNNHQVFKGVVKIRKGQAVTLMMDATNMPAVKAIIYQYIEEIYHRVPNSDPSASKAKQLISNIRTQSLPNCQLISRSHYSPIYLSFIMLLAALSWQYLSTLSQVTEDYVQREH
Protocol: (a) Inhibition of Squalene Synthase
In this test, the ability of a compound to prevent the . formation of squalene from a radioactive substrate (tritiated farnesyl pyrophosphate) is assessed.
The test compound is incubated at a concentration of 25 micromolar in 200 μl of a buffered solution containing potassium phosphate (50 mM), MgCl2 (4.95 mM), KF (9.9 mM), NADPH (0.9 mM) and rat liver microsomal protein (20 μg). Rat liver microsomes are prepared by the method described in published European Patent Application No. 324,421 and stored in liquid nitrogen prior to assay. Assay vials are kept at 37° C. throughout the incubation.
The reaction is started with the addition of the substrate (1-[^3 H]-farnesyl pyrophosphate), final concentration 20 μM, and stopped after 15 minutes reaction time with the addition of 50 μl of 4% KOH. The reaction products are separated from unreacted substrate after application to a C-18 octadecyl 1ccBond column (Analytichem Int product No. 617101). An aqueous fraction is eluted with 250 μl of 0.1M KOH. Squalene is then eluted with 1.0 ml 10% ethylacetate in hexane and radioactivity determined. The difference in radioactivity in the presence and absence of the test compound is used to determine the level of inhibition. […] The IC50 can then be determined from a plot of percentage inhibition against concentration of test compound.

[1] = system: de novo hepatic cholesterol synthesis; assay: Acute Rat Cholesterol Synthesis Assay (de novo hepatic cholesterol synthesis from exogenously administered 14C-acetate); type: in vivo; conditions: female rats, oral gavage, ip or iv dosing (route not given), [2-14C]-acetate ip 1 hour after dose, blood after a further hour
Protocol: (b) Acute Rat Cholesterol Synthesis Assay
This is an acute in vivo test in the rat to measure de novo hepatic cholesterol synthesis from exogenously administered ^14 C-acetate.
Female rats (35-55 g) are housed in reverse lighting conditions (red light from 0200h-1400h) for a period of about 2 weeks prior to test. Animals are allowed free access to chow and drinking water throughout this period. At test, animals should weigh 125-150 g.
Test compounds may be administered by oral gavage, dissolved or suspended in 0.5% polysorbate, or by ip or iv dosing. Control animals receive vehicle alone. After 1 hour the rats are injected ip with 25 μCi [2-^14 C]-acetate (NEN DUPONT. specific activity, 45-60 mCi/mmol NEC-085H, or AMERSHAM specific activity, 50-60 mCi/mmol CFA 14) in a volume of 0.25 ml saline (100 μCi/ml). After a further hour, rats are terminally anaesthetised with halothane and a blood sample obtained from the abdominal vena cava.
1 ml of plasma is lyophilised and then saponified in 2 ml ethanolic KOH (1 part 33% KOH, 9 parts ethanol) at 75° C. for 2 hours. After addition of an equal quantity of water, non-saponifiable lipids are extracted with two 5 ml volumes of hexane. The hexane extracts are evaporated to dryness and the residues dissolved in ethanol to determine cholesterol specific radioactivity. ED50 values can be determined in the standard way.

Row | SMILES | IC50 (Squalene Synthase) | ED50 [1]
1 | OC1C2CCN(CC2)C1Cc1ccc(-c2ccccc2)cc1 (stereo not drawn) [Example 2, 2-(4-biphenylmethyl)-3-quinuclidinol] | 120 nM | –
2 | c1ccc(-c2ccc(SC3CN4CCC3CC4)cc2)cc1 (stereo not drawn) [Example 10, 3-(4-biphenylthio)quinuclidine] | 21 nM | 46 mg/kg
